Where two headings read alike, the source gives them in different places.
Assays:
Assay in all cases: Off-target screening (CEREP)
Format in all cases: binding
Details in all cases: read-out: percent inhibition
5-HT transporter = target: T1, 5-HT transporter (Homo sapiens, UniProt P31645)
T1 construct: purchased Eurofins CEREP SA
Method: (§1) Supplementary Table 1 │ Off-target activity screening f or MCP compou nds […]
(§2) The assays given in the table above were conducted at Eurofins CEREP S A (Celle-Lévescault, France) and were run as single point measurements in duplicates in the presence of 10 µ M of the test compound and reported as percent inhibition of the radioligand signal or control enzymatic activity. n.d., not

Adenosine A3 respetor = target: T2, Adenosine A3 respetor (Homo sapiens, UniProt P0DMS8)
T2 construct: purchased Eurofins CEREP SA
T2 sequence (P0DMS8 1-318): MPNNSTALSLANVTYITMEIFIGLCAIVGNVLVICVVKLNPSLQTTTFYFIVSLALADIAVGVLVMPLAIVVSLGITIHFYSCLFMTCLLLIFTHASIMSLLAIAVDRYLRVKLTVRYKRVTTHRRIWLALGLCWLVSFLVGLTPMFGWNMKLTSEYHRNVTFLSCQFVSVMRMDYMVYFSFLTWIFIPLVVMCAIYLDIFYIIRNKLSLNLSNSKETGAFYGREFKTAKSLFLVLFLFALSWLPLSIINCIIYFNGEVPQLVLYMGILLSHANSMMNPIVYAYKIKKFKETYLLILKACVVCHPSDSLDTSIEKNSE
Method: as §1, §2

Alpha1A-adrenoreceptor = target: T3, Alpha1A-adrenoreceptor (Homo sapiens, UniProt P35348)
T3 construct: purchased Eurofins CEREP SA
T3 sequence (P35348 1-466): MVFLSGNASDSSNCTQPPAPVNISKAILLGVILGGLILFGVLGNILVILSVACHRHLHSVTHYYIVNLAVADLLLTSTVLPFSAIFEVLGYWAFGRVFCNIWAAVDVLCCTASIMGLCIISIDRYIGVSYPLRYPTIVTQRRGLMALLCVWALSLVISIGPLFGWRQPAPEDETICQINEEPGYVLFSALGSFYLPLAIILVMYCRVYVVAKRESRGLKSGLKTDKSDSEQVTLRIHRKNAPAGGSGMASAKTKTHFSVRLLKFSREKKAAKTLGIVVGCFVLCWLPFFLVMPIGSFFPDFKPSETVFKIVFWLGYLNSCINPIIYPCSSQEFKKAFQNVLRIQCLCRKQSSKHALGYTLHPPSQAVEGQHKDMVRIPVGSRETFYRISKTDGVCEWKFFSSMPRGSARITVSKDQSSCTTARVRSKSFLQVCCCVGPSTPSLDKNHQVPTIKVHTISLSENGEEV
Method: as §1, §2

Androgen receptor = target: T4, Androgen receptor (Homo sapiens, UniProt P10275)
T4 construct: purchased Eurofins CEREP SA
T4 sequence (P10275 1-920): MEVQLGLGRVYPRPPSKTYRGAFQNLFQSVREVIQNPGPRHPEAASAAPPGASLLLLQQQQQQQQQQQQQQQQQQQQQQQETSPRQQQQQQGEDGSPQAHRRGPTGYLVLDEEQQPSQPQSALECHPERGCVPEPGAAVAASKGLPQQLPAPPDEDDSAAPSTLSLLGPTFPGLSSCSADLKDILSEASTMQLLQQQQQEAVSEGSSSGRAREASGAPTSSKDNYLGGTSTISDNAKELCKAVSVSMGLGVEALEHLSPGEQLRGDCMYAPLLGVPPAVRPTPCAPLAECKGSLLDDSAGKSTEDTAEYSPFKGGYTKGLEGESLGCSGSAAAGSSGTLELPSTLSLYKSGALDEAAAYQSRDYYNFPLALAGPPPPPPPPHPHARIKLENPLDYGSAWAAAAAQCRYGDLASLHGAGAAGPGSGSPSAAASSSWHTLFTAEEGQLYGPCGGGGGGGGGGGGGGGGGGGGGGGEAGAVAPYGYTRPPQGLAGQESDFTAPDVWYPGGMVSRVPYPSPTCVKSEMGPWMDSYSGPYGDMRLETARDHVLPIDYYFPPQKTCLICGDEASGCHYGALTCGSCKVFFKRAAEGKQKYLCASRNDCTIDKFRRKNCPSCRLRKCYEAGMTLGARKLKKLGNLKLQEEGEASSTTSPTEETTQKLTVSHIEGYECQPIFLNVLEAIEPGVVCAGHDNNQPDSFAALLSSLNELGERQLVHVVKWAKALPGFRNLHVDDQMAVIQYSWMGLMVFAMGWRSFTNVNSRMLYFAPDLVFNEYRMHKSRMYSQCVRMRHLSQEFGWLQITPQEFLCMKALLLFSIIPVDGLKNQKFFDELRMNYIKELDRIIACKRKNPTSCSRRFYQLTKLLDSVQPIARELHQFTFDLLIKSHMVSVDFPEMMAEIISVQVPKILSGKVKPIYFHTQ
Method: as §1, §2

Dopamine D1 receptor = target: T5, Dopamine D1 receptor (Homo sapiens, UniProt P21728)
T5 construct: purchased Eurofins CEREP SA
T5 sequence (P21728 whole entry): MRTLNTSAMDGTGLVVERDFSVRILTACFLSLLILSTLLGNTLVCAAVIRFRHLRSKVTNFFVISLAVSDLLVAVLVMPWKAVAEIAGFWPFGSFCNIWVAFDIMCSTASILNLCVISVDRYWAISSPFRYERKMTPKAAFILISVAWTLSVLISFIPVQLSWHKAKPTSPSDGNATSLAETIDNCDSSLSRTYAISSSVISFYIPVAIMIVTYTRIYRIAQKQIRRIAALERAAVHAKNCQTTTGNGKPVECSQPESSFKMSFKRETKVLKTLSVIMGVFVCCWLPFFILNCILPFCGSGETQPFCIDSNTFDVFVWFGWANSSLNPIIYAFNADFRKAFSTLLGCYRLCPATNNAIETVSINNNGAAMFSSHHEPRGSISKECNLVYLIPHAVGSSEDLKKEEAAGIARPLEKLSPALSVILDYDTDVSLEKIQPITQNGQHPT
Method: as §1, §2

Glucocorticoid receptor = target: T6, Glucocorticoid receptor (Homo sapiens, UniProt P04150)
T6 construct: purchased Eurofins CEREP SA
T6 sequence (P04150 1-777): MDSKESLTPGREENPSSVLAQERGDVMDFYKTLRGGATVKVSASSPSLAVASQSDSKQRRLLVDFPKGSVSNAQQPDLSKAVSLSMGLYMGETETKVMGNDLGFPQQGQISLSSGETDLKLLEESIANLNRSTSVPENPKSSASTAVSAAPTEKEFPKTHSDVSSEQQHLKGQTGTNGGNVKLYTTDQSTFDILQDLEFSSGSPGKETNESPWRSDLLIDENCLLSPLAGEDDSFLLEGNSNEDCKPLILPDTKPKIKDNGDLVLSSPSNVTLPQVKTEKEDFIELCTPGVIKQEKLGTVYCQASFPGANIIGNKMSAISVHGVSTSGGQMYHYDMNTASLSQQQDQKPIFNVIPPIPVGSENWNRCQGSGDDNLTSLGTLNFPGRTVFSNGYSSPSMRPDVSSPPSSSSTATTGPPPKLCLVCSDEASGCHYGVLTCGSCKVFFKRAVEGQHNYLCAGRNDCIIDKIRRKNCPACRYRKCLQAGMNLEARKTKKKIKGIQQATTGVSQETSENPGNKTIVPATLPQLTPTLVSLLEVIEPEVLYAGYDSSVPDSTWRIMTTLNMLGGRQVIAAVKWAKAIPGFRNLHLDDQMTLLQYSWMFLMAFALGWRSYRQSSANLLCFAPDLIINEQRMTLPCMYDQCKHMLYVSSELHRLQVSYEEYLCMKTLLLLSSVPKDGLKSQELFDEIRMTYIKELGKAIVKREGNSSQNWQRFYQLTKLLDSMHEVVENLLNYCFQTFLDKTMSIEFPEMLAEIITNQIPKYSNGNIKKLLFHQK
Method: as §1, §2

Prostaglandin F receptor = target: T7, Prostaglandin F receptor (Homo sapiens, UniProt P43088)
T7 construct: purchased Eurofins CEREP SA
T7 sequence (P43088 whole entry): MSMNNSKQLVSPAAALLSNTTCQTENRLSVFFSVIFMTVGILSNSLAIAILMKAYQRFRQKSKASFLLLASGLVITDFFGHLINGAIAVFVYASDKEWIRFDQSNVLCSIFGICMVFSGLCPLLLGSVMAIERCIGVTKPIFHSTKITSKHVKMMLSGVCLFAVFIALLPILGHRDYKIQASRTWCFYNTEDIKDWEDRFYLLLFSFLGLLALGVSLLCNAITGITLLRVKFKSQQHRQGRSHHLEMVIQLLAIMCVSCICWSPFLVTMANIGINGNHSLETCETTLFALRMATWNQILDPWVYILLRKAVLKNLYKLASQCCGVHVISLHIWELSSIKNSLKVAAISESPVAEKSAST
Method: as §1, §2

T1 sequence (P31645 whole entry): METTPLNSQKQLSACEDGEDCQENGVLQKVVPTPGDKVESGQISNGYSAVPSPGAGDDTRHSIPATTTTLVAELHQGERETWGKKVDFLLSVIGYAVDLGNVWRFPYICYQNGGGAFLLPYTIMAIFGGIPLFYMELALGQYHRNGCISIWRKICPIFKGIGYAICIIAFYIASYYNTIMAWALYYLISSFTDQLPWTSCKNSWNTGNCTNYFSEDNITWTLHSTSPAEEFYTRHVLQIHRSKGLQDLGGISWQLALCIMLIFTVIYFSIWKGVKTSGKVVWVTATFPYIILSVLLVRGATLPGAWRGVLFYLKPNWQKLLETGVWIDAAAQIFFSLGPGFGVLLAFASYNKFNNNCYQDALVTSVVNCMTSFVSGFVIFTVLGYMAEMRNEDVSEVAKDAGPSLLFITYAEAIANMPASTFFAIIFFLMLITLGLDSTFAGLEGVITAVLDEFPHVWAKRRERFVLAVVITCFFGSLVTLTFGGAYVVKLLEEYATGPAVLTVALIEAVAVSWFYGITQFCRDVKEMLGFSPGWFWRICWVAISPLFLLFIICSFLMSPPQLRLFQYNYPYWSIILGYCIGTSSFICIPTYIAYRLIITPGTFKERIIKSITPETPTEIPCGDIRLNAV

SMILES: CN1C(=O)[C@H](CCCN)NC(=O)[C@H](CCCN)NCc2ccccc2Sc2ccccc2CNC(=O)[C@@H]1Cc1c[nH]c2ccccc12 [RO7036668]
- inhibition at 10 µM (5-HT transporter; 10 µM, duplicates): 13%
- inhibition at 10 µM (Adenosine A3 respetor; 10 µM, duplicates): 32%
- inhibition at 10 µM (Alpha1A-adrenoreceptor; 10 µM, duplicates): 15%
- inhibition at 10 µM (Androgen receptor; 10 µM, duplicates): 6%
- inhibition at 10 µM (Dopamine D1 receptor; 10 µM, duplicates): 27%
- inhibition at 10 µM (Glucocorticoid receptor; 10 µM, duplicates): 3%
- inhibition at 10 µM (Prostaglandin F receptor; 10 µM, duplicates): 2%

SMILES: CN1C(=O)[C@H](CCCCN)NC(=O)[C@H](CCCN)NCc2cccnc2Sc2c(Cl)ccc(Cl)c2CNC(=O)[C@@H]1Cc1c[nH]c2ccccc12 [RO7075573]
- inhibition at 10 µM (5-HT transporter): 16%
- inhibition at 10 µM (Adenosine A3 respetor): 11%
- inhibition at 10 µM (Alpha1A-adrenoreceptor): 22%
- inhibition at 10 µM (Androgen receptor): -4%
- inhibition at 10 µM (Dopamine D1 receptor): 8%
- inhibition at 10 µM (Glucocorticoid receptor): 9%
- inhibition at 10 µM (Prostaglandin F receptor): -4%

SMILES: CN1C(=O)[C@H](CCCCN)NC(=O)[C@H](CCCN)NCc2cccnc2Sc2c(Cl)ccc(-c3ccc(C(=O)O)cc3)c2CNC(=O)[C@@H]1Cc1c[nH]c2ccccc12 [RO7202110]
- inhibition at 10 µM (5-HT transporter; 10 µM, duplicates): 13%
- inhibition at 10 µM (Adenosine A3 respetor; 10 µM, duplicates): 9%
- inhibition at 10 µM (Alpha1A-adrenoreceptor; 10 µM, duplicates): 7%
- inhibition at 10 µM (Androgen receptor; 10 µM, duplicates): 3%
- inhibition at 10 µM (Dopamine D1 receptor; 10 µM, duplicates): -7%
- inhibition at 10 µM (Glucocorticoid receptor; 10 µM, duplicates): 9%
- inhibition at 10 µM (Prostaglandin F receptor; 10 µM, duplicates): -3%

SMILES: CN1C(=O)[C@H](CCCCN)NC(=O)[C@H](CCCN)NCc2cccnc2Sc2cccc(-c3ccc(C(=O)O)cc3)c2CNC(=O)[C@@H]1Cc1c[nH]c2ccccc12 [zosurabalpin]
- inhibition at 10 µM (5-HT transporter): 2%
- inhibition at 10 µM (Adenosine A3 respetor): 2%
- inhibition at 10 µM (Alpha1A-adrenoreceptor): 7%
- inhibition at 10 µM (Androgen receptor): -5%
- inhibition at 10 µM (Dopamine D1 receptor): -3%
- inhibition at 10 µM (Glucocorticoid receptor): -1%
- inhibition at 10 µM (Prostaglandin F receptor): 5%

Reference: publication PMC10794144, “A novel antibiotic class targeting the lipopolysaccharide transporter” (Nature, 2024)
